Literature values as cited in US20110288042A1, “STABLE HIGHLY PURE AZACITIDINE AND PREPARATION METHODS THEREFOR” (CHEMAGIS LTD., priority 2007, published 2011).

Conditions: reported; cited from earlier work

O=c1ncccn1[C@@H]1O[C@H](CO)[C@@H](O)[C@H]1O [zebularine]
Stability in aqueous solution: stable in aqueous solution
